Laboratory results taken from ChEMBL document CHEMBL5321278, “Discovery of Aminoratjadone Derivatives as Potent Noncovalent CRM1 Inhibitors” (J Med Chem, 2023).
pIC50, pKd: −log10 of the molar value. Values belong to the compound of their own block, whether it stands above or below them. The source made the active and inactive calls. No cut-off for these calls is given here. Where a SMILES comes first, the peptide text is derived from it. The star is where a group is joined. Cbz = O=C(OCc1ccccc1)*

Experiments:
[1] = test system: Exportin-1 (Homo sapiens), O14980 [C528S]; assay: Inhibition of CRM1 C528S mutant-mediated nuclear export in human HCT-116 cells assessed as inhibition of nuclear export of cargoes at 1 uM; type: cell-based
[2] = test system: Exportin-1 (Homo sapiens), O14980 [C528S]; assay: Inhibition of CRM1 C528S mutant-mediated nuclear export in human HeLa cells expressing mCherry-tagged NES reporter at 1 uM incubated for 3 hrs by confocal microscopy analysis; type: cell-based
RKO [3] = assay: Cytotoxicity against SiRNA mediated CRM1 knockdown human RKO cells assessed as reduction in cell viability at 0.3 to 1 uM incubated for 72 hrs by CCK-8 assay; type: functional, cell-based; conditions: dose 0.3-1 µM
HCT-116 [4] = assay: Cytotoxicity against human HCT-116 cells assessed as reduction in cell viability incubated for 72 hrs by CCK-8 assay; type: functional, cell-based; conditions: HCT-116, 72 h
Exportin-1 [5] = molecular target: T1, Exportin-1 (Homo sapiens, UniProt O14980); assay: Non-covalent inhibition of CRM1 (unknown origin) assessed as reversal of GST-tagged NES peptide binding pretreated with CRM1 followed by compound addition and measured after 2 hrs
Exportin-1 [6] = molecular target: T1, Exportin-1; assay: Inhibition of CRM1 nuclear export in human HeLa cells assessed as CRM1 depletion measured after 6 hrs; type: cell-based; conditions: for inhibition: dose 0.1-9 µM
RKO [7] = assay: Cytotoxicity against human RKO cells assessed as reduction in cell viability incubated for 72 hrs by CCK-8 assay; type: functional, cell-based
Exportin-1 [8] = molecular target: T1, Exportin-1; assay: Inhibition of CRM1-mediated nuclear export in human HeLa cells expressing mCherry-tagged NES reporter incubated for 3 hrs by confocal microscopy analysis; type: cell-based; conditions: for inhibition: dose 0.09-3 µM
Exportin-1 [9] = molecular target: T1, Exportin-1; assay: Inhibition of CRM1 (unknown origin) assessed as binding of GST-tagged NES peptide
HCT-116 [10] = assay: Cytotoxicity against SiRNA mediated CRM1 knockdown human HCT-116 cells assessed as reduction in cell viability at 0.3 to 1 uM incubated for 72 hrs by CCK-8 assay; type: functional, cell-based; conditions: dose 0.3-1 µM
Exportin-1 [11] = molecular target: T1, Exportin-1; assay: Non-covalent inhibition of CRM1 (unknown origin) assessed as reversal of GST-tagged NES peptide binding
HeLa [12] = assay: Downregulation of CRM1 mRNA expression in human HeLa cells at 9 uM incubated for 6 hrs; type: functional, cell-based
HeLa [13] = assay: Downregulation of CRM1 expression in human HeLa cells at 9 uM incubated for 6 hrs by Western blot analysis; type: functional, cell-based
Exportin-1 [14] = molecular target: T1, Exportin-1; assay: Inhibition of CRM1-mediated nuclear export in human HCT-116 cells assessed as inhibition of nuclear export of cargoes at 1 uM; type: cell-based
Exportin-1 [15] = molecular target: T1, Exportin-1; assay: Binding affinity to CRM1 (unknown origin) assessed as dissociation constant by microscale thermophoresis assay
Exportin-1 [16] = molecular target: T1, Exportin-1; assay: Inhibition of CRM1 nuclear export in human HeLa cells assessed as CRM1 depletion at 10 uM measured after 6 hrs; type: cell-based
Exportin-1 [17] = molecular target: T1, Exportin-1; assay: Inhibition of CRM1 nuclear export in human HeLa cells assessed as CRM1 depletion at 1 uM measured after 6 hrs; type: cell-based
Exportin-1 [18] = molecular target: T1, Exportin-1; assay: Inhibition of CRM1-mediated nuclear export in human HeLa cells expressing mCherry-tagged NES reporter at 1 uM incubated for 3 hrs by confocal microscopy analysis; type: cell-based
Exportin-1 [19] = molecular target: T1, Exportin-1; assay: Inhibition of CRM1 nuclear export in human HeLa cells assessed as CRM1 depletion at 50 uM measured after 6 hrs; type: cell-based
RKO [20] = assay: Induction of apoptosis in human RKO cells assessed as necrotic at 1 uM measured after 24 hrs by AnnexinV-FITC/propidium iodide staining based flow cytometric analysis (reference value: 1%); type: functional
HCT-116 [21] = assay: Induction of apoptosis in human HCT-116 cells assessed as necrotic at 0.5 uM measured after 24 hrs by AnnexinV-FITC/propidium iodide staining based flow cytometric analysis (reference value: 2.22%); type: functional
HCT-116 [22] = assay: Induction of apoptosis in human HCT-116 cells assessed as late apoptotic at 1 uM measured after 24 hrs by AnnexinV-FITC/propidium iodide staining based flow cytometric analysis (reference value: 4.91%); type: functional
RKO [23] = assay: Induction of apoptosis in human RKO cells assessed as viable cells at 1 uM measured after 24 hrs by AnnexinV-FITC/propidium iodide staining based flow cytometric analysis (reference value: 92.51%); type: functional; conditions: read-out: Activity
RKO [24] = assay: Induction of apoptosis in human RKO cells assessed as early apoptotic at 0.5 uM measured after 24 hrs by AnnexinV-FITC/propidium iodide staining based flow cytometric analysis (reference value: 1.79%); type: functional
RKO [25] = assay: Induction of apoptosis in human RKO cells assessed as late apoptotic at 0.5 uM measured after 24 hrs by AnnexinV-FITC/propidium iodide staining based flow cytometric analysis (reference value: 4.70%); type: functional
RKO [26] = assay: Induction of apoptosis in human RKO cells assessed as increase in cleaved PARP-1 level by Western blot analysis; type: functional, cell-based
RKO [27] = assay: Induction of apoptosis in human RKO cells assessed as viable cells at 0.5 uM measured after 24 hrs by AnnexinV-FITC/propidium iodide staining based flow cytometric analysis (reference value: 92.51%); type: functional; conditions: read-out: Activity
RKO [28] = assay: Induction of apoptosis in human RKO cells assessed as late apoptotic at 1 uM measured after 24 hrs by AnnexinV-FITC/propidium iodide staining based flow cytometric analysis (reference value: 4.70%); type: functional
HCT-116 [29] = assay: Inhibition of colony formation in human HCT-116 cells assessed as decrease in colonies upto 0.5 uM incubated for 72 hrs by crystal violet staining based assay; type: functional, cell-based
HCT-116 [30] = assay: Induction of apoptosis in human HCT-116 cells assessed as viable cells at 0.5 uM measured after 24 hrs by AnnexinV-FITC/propidium iodide staining based flow cytometric analysis (reference value: 89.32%); type: functional; conditions: read-out: Activity
HCT-116 [31] = assay: Induction of apoptosis in human HCT-116 cells assessed as early apoptotic at 0.5 uM measured after 24 hrs by AnnexinV-FITC/propidium iodide staining based flow cytometric analysis (reference value: 3.55%); type: functional
HCT-116 [32] = assay: Induction of apoptosis in human HCT-116 cells assessed as early apoptotic at 1 uM measured after 24 hrs by AnnexinV-FITC/propidium iodide staining based flow cytometric analysis (reference value: 3.55%); type: functional
RKO [33] = assay: Induction of apoptosis in human RKO cells assessed as early apoptotic at 1 uM measured after 24 hrs by AnnexinV-FITC/propidium iodide staining based flow cytometric analysis (reference value: 1.79%); type: functional
Exportin-1 [34] = molecular target: T1, Exportin-1; assay: Binding affinity to CRM1 in human HCT-116 cells assessed as thermal stabilization at 50 uM at 50 to 68 degreeC incubated for 3 mins by […] analysis; type: cell-based
RKO [35] = assay: Induction of apoptosis in human RKO cells assessed as necrotic at 0.5 uM measured after 24 hrs by AnnexinV-FITC/propidium iodide staining based flow cytometric analysis (reference value: 1%); type: functional
HCT-116 [36] = assay: Induction of apoptosis in human HCT-116 cells assessed as necrotic at 1 uM measured after 24 hrs by AnnexinV-FITC/propidium iodide staining based flow cytometric analysis (reference value: 2.22%); type: functional
HCT-116 [37] = assay: Induction of apoptosis in human HCT-116 cells assessed as increase in cleaved PARP-1 level by Western blot analysis; type: functional, cell-based
HCT-116 [38] = assay: Induction of apoptosis in human HCT-116 cells assessed as late apoptotic at 0.5 uM measured after 24 hrs by AnnexinV-FITC/propidium iodide staining based flow cytometric analysis (reference value: 4.91%); type: functional
HCT-116 [39] = assay: Induction of apoptosis in human HCT-116 cells assessed as viable cells at 1 uM measured after 24 hrs by AnnexinV-FITC/propidium iodide staining based flow cytometric analysis (reference value: 89.32%); type: functional; conditions: read-out: Activity
RKO [40] = assay: Inhibition of colony formation in human RKO cells assessed as decrease in colonies upto 0.5 uM incubated for 72 hrs by crystal violet staining based assay; type: functional, cell-based

T1 sequence (O14980 whole entry): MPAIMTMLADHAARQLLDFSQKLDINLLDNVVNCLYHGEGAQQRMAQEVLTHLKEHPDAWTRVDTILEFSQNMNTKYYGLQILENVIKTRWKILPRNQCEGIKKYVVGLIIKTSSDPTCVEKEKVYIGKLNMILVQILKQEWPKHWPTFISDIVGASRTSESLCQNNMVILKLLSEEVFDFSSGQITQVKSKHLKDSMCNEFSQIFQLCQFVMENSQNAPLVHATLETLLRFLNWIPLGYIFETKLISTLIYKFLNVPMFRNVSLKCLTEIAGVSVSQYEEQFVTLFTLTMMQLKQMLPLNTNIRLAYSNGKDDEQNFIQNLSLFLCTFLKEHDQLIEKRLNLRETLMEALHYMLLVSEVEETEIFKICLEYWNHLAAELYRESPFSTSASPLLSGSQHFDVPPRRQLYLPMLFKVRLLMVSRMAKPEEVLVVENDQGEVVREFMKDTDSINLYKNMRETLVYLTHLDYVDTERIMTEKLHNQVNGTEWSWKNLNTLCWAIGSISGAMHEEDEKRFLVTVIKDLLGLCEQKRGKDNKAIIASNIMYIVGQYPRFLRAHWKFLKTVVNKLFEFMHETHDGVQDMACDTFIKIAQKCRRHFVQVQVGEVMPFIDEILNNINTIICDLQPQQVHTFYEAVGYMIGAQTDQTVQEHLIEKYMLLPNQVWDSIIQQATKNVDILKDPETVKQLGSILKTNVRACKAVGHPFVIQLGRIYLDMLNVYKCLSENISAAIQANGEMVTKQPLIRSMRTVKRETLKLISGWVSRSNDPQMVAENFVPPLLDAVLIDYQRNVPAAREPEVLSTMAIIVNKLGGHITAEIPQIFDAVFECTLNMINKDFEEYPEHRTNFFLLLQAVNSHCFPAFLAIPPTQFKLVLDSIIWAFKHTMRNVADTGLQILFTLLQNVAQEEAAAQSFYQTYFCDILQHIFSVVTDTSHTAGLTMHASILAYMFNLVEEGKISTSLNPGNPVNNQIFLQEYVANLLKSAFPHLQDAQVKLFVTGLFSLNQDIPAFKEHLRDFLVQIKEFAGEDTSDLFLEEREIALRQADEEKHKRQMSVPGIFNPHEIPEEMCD
Chain of Exportin-1 (Homo sapiens), O14980 [C528S] (O14980 whole entry C528S): as the sequence (O14980 whole entry) above, with C528S counted along it

Compound: CCN(CC)CCCC(C)Nc1ccnc2cc(Cl)ccc12 (configuration not stated)
inhibition (Exportin-1 [16]): Active

Compound: CC(C)C[C@@H](C=O)NC(=O)[C@H](CC(C)C)NC(=O)[C@H](CC(C)C)NC(=O)OCc1ccccc1 (Cbz-Leu-Leu-Leu-aldehyde)
inhibition (Exportin-1 [19]): Active

Compound: O=C(/C=C\n1cnc(-c2cc(C(F)(F)F)cc(C(F)(F)F)c2)n1)NNc1cnccn1
inhibition (Exportin-1 [17]): inactive

Continued, in another order:

inhibition [1]: inactive
inhibition [2]: Active
inhibition (Exportin-1 [5]): Active
pIC50 (Exportin-1 [6]): 6.26
inhibition (Exportin-1 [6]): Active
pIC50 (Exportin-1 [8]): 6.47
inhibition (Exportin-1 [8]): Dose-Dependent Effect
inhibition (Exportin-1 [9]): Active
inhibition (Exportin-1 [11]): Active
inhibition (Exportin-1 [14]): Active
Compound: C/C=C/[C@@H]1O[C@H]([C@@H](N)/C=C/C=C(\C)C[C@@H](C)/C=C(C)\C=C\[C@H](O)C[C@H](N)CC(=O)OC)C[C@H](O)[C@@H]1C
Activity (RKO [3]): Active
pIC50 (HCT-116 [4]): 6.49
pIC50 (RKO [7]): 6.52
Activity (HCT-116 [10]): Active
Activity (HeLa [12]): inactive
Activity (HeLa [13]): inactive

pKd (Exportin-1 [15]): 5.23
Compound: C/C=C/[C@@H]1O[C@H]([C@H](N)/C=C/C=C(\C)C[C@@H](C)/C=C(C)\C=C\[C@H](O)C[C@H](N)CC(=O)O)C[C@H](O)[C@@H]1C

inhibition (Exportin-1 [17]): inactive
inhibition (Exportin-1 [18]): inactive
inhibition (Exportin-1 [9]): inactive
Compound: C/C=C/[C@@H]1O[C@H]([C@@H](N)/C=C/C=C(\C)C[C@@H](C)/C=C(C)\C=C\[C@H](O)C[C@H](N)CC(N)=O)C[C@H](O)[C@@H]1C

inhibition [1]: inactive
inhibition [2]: Active
pIC50 (Exportin-1 [6]): 6.57
inhibition (Exportin-1 [6]): Active
pIC50 (Exportin-1 [8]): 6.55
inhibition (Exportin-1 [8]): Dose-Dependent Effect
inhibition (Exportin-1 [9]): Active
Activity (Exportin-1 [34]): Active
inhibition (Exportin-1 [11]): Active
pKd (Exportin-1 [15]): 5.34
inhibition (Exportin-1 [14]): Active
Compound: C/C=C/[C@@H]1O[C@H]([C@H](N)/C=C/C=C(\C)C[C@@H](C)/C=C(C)\C=C\[C@H](O)C[C@H](N)CC(=O)OC)C[C@H](O)[C@@H]1C
Activity (RKO [20]): 7.93%
Activity (RKO [3]): Active
Activity (HCT-116 [21]): 3.75%
Activity (HCT-116 [22]): 25.08%
pIC50 (HCT-116 [4]): 6.92
viability at 1 µM (RKO [23]): 70.9%
Activity (RKO [24]): 3.34%
Activity (RKO [25]): 11.78%
Activity (RKO [26]): Active
viability at 0.5 µM (RKO [27]): 78.8%
Activity (RKO [28]): 18.43%
inhibition (HCT-116 [29]): Active
viability at 0.5 µM (HCT-116 [30]): 78%
Activity (HCT-116 [31]): 5.73%
Activity (HCT-116 [32]): 4.32%
pIC50 (RKO [7]): 6.72
Activity (RKO [33]): 2.78%
Activity (HCT-116 [10]): Active
Activity (HeLa [12]): inactive
Activity (RKO [35]): 6.09%
Activity (HCT-116 [36]): 8.17%
Activity (HeLa [13]): inactive
Activity (HCT-116 [37]): Active
Activity (HCT-116 [38]): 12.47%
viability at 1 µM (HCT-116 [39]): 62.4%
inhibition (RKO [40]): Active

inhibition (Exportin-1 [17]): inactive
inhibition (Exportin-1 [9]): inactive
Compound: C/C=C/[C@@H]1O[C@H]([C@@H](N)/C=C/C=C(\C)C[C@@H](C)/C=C(C)\C=C\[C@H](O)C[C@@H](CC(=O)NCCO)NCCO)C[C@H](O)[C@@H]1C
